Test results from paper PMC8123555, “Precision targeting of the plasminogen activator inhibitor‐1 mechanism increases efficacy of fibrinolytic therapy in empyema” (Physiological Reports, 2021).

Columns and labels:
Type in all cases: in vivo, rabbit
[1] = tested on: FITC‐fibrin; assay: Fibrinolytic activity in pleural fluids (FITC-fibrin film assay), empyema; details: PAI-1-TFT with 2.0 mg/kg DSP, infectious pleural injury; for Steady-state level of pleural fluid fibrinolytic activity: relative to supplemented baseline
Protocol: (§1) A Pilot Fibrinolytic Assay (FPA96F) was used to measure fibrinolytic potential (Beckert et al., 2019; Florova et al., 2015) and fibrinolytic activity (Florova et al., 2015, 2018; Komissarov et al., 2016) in pleural fluid samples. To prepare a FITC‐fibrin film, a 1:1 mixture of FITC‐tagged and unlabeled fibrinogen (0.4 mg/ml) in 0.05 M Hepes/NaOH (pH 7.5, 130 mM NaCl, 5 mM CaCl2) buffer at room temperature was transferred to black 96‐well flat bottom plates from Costar (Corning Inc, NY). Human thrombin (final concentration 10 nM) was added to each well and plates were dried overnight in a dark chemical hood at room temperature. 96‐well plates with FITC‐fibrin film were washed three times with 0.3 ml of cold Hepes/NaOH buffer and stored at −20°C up to one year. Fibrinolytic activity in pleural fluids was calculated from the slopes of time‐dependences of an increase in the fluorescence emission at 512 nm (excitation at 490 nm) due to the degradation of FITC‐fibrin. Fibrinolytic potential was determined as the difference between fibrinolytic activity in samples of pleural fluid at baseline (BL) or 24 h measured with and without supplementation with sctPA (Florova et al., 2015). To determine whether PAI‐1‐TFT affects fibrinolytic potential in rabbits, BL values were plotted against fibrinolytic potential at 24 h and the linear correlation was determined using Sigmaplot 14.0.

[2] = tested on: chemically induced (TCN) pleural injury; assay: Fibrinolytic therapy of TCN-induced pleural injury in rabbits (GLIS, pleural thickening); details: outcome at 24 h
Source text: All animal procedures were approved by the Institutional Animal Care and Use Committee at The University of Texas Health Science Center at Tyler (IACUC protocols 499,616,617). Studies used female, pathogen‐free New Zealand white rabbits (3.0–3.6 kg; average age 18 weeks) from Charles River Laboratories (Wilmington, MA). These studies required a total of 107 rabbits, 43 for the model of TCN‐induced pleural injury and 64 for the model of empyema. […] Accumulation of pleural fluid and fibrin deposition was monitored using ultrasonography; detailed in the ultrasonography subsection. […] Animals were monitored carefully for signs of distress, pain, and worsening clinical status. […]
Development of pleural injury was monitored via ultrasonography. […]
For each animal, gross lung injury scores (GLIS) were calculated as previously described (Florova et al., 2015; Karandashova et al., 2013; Komissarov et al., 2013). […] Pleural thickening was measured using morphometry, as previously described (Komissarov et al., 2016).

[3] = tested on: FITC‐fibrin; assay: Fibrinolytic activity in pleural fluids (FITC-fibrin film assay), TCN-induced injury; details: PAI-1-TFT with 2.0 mg/kg DSP, chemically induced injury; for Steady-state level of pleural fluid fibrinolytic activity: relative to supplemented baseline
Protocol: as §1

[4] = tested on: Streptococcus pneumoniae induced empyema; assay: Fibrinolytic therapy of S. pneumoniae induced empyema in rabbits (GLIS, pleural thickening, WBC differential)
Protocol: All animal procedures were approved by the Institutional Animal Care and Use Committee at The University of Texas Health Science Center at Tyler (IACUC protocols 499,616,617). Studies used female, pathogen‐free New Zealand white rabbits (3.0–3.6 kg; average age 18 weeks) from Charles River Laboratories (Wilmington, MA). These studies required a total of 107 rabbits, 43 for the model of TCN‐induced pleural injury and 64 for the model of empyema. […] Briefly, a 3 ml mixture of TCN in ascorbic acid (20 mg/ml TCN (T3258, Sigma‐Aldrich), 2.5 mg/ml ascorbic acid (A7506, Sigma‐Aldrich) and lidocaine (1 mg/ml, UTHCT Compounding Pharmacy), was delivered by intrapleural injection. A model of acute empyema in rabbits was induced as described previously (Komissarov et al., 2016). Briefly, 1–5 × 10^8 cfu of S. pneumoniae (D39 strain, National Collection of Type Cultures, Salisbury UK) in 3 ml of 0.5% brain‐heart infusion agar (BD 238400, BD Diagnostic Systems) was delivered by intrapleural injection. Clavomox (10 mg/kg, subcutaneous, daily for 1–3 days as clinically indicated by Attending Veterinarian) (10000485, Zoetis) was started at 28–30 h post‐infection. Accumulation of pleural fluid and fibrin deposition was monitored using ultrasonography; detailed in the ultrasonography subsection. After 48 or 72 h for TCN‐induced pleural injury and empyema, respectively, intrapleural therapeutics were administered depending on treatment group via an 18‐gauge catheter, which was flushed with 0.5 ml PBS. In all experiments, samples of pleural fluids (0.5 ml) from each rabbit were collected prior to and at 10, 20, and 40 min after PAI‐1‐TFT and processed for later analysis (Florova et al., 2015; Karandashova et al., 2013; Komissarov et al., 2013, 2016). Anesthesia, postoperative pain medication, and animal care were provided as reported previously (Florova et al., 2015; Karandashova et al., 2013; Komissarov et al., 2013, 2016). with details provided in the supplement. Animals were monitored carefully for signs of distress, pain, and worsening clinical status. Euthanasia was accomplished using intravenous injection of 1 ml of commercial euthanasia solution (sodium pentobarbital 390 mg/ml and phenytoin 50 mg/ml) followed by exsanguination.
Development of pleural injury was monitored via ultrasonography. Briefly, B‐mode ultrasonography of the chest was performed (Komissarov et al., 2013, 2015) using a Logiq e system (GE Healthcare, Milwaukee, WI) using R5.2.x software and a multifrequency transducer model 12L‐RS at a working frequency of 10 MHz, as previously described (Komissarov et al., 2016).
For each animal, gross lung injury scores (GLIS) were calculated as previously described (Florova et al., 2015; Karandashova et al., 2013; Komissarov et al., 2013). PAI‐1‐TFT was considered successful when GLIS ≤10. Multiple fibrin webs or sheets connecting the visceral and parietal pleura or “too numerous to count” (TNTC) strands and a fibrinous lung coating correlated with a GLIS = 50. Pleural thickening was measured using morphometry, as previously described (Komissarov et al., 2016).

[5] = plasminogen activator 0.5 mg/kg alone, empyema

Row | Substance | kobs of decrease in pleural fluid fibrinolytic activity to steady state [1] | Steady-state level of pleural fluid fibrinolytic activity [1] | Gross lung injury score (GLIS) ([2]; sctPA 72.5 µg/kg alone (1/2 of MED), n = 5) | kobs of decrease in pleural fluid fibrinolytic activity to steady state [3] | Steady-state level of pleural fluid fibrinolytic activity [3] | Outcome of fibrinolytic therapy (GLIS) [4, 5] | Outcome of fibrinolytic therapy (GLIS) ([4]; sctPA 0.25 mg/kg alone, acute empyema) | GLIS of representative animal ([4]; sctPA 0.25 mg/kg alone, photograph 24 h after treatment) | Minimal effective dose (MED) of sctPA with DSP ([4]; with 8.0 mg/kg DSP, acute empyema) | Gross lung injury score (GLIS) ([2]; scuPA 62.5 µg/kg alone (1/8 of MED), n = 6)
1 | Alteplase [sctPA, reference compound] | 0.48 ± 0.07 min⁻¹ | 1.5% | > 10 | 0.40 ± 0.11 min⁻¹ | 2.7% | ineffective | ineffective | 50 | 0.25 mg/kg | 
2 | Prourokinase [scuPA] | 0.16 ± 0.06 min⁻¹ | 2.5% |  | 0.09 ± 0.06 min⁻¹ | 5.6% | ineffective |  |  |  | > 10
